Patent US7579469B2, “Glucocorticoid mimetics, methods of making them, pharmaceutical compositions, and uses thereof” (Boehringer Ingelheim Pharmaceuticals, Inc., priority 2003, dated 2009)

The compounds below were run against T1, human glucocorticoid receptor (GR) complex (Homo sapiens, UniProt P04150) (assay: Glucocorticoid receptor competitive binding assay (fluorescence polarization)). Conditions: competition with TAMRA-labeled dexamethasone.
T1 construct: made in house; host or cells: insect expression system (baculovirus lysate)
T1 sequence (P04150 1-777): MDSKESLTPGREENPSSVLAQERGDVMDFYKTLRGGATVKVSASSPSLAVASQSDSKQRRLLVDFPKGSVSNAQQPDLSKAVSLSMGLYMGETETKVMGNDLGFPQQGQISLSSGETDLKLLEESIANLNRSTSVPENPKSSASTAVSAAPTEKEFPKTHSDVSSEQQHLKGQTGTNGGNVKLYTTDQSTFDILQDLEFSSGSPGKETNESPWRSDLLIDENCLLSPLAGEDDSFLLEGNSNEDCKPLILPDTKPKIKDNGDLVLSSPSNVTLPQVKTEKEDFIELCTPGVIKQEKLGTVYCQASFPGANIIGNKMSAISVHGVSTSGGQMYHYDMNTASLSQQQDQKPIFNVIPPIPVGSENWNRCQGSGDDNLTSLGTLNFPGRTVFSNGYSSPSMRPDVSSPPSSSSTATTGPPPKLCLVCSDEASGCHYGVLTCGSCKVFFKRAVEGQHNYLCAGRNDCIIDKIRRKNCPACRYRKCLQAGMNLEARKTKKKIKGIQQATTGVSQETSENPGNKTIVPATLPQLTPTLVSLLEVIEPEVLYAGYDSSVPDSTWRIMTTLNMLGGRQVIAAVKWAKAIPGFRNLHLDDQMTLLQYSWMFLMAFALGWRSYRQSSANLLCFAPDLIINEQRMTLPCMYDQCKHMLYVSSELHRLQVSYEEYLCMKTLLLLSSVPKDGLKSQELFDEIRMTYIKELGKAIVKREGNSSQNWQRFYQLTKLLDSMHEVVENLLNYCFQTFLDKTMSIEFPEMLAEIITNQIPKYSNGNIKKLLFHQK
Protocol: Compounds of the invention were evaluated for binding to the steroid receptor by a fluorescence polarization competitive binding assay.
A. Glucocorticoid Receptor Competitive Binding Assay
Step 1. Characterization of the Fluorescent Probe
The wavelengths for maximum excitation and emission of the fluorescent probe should first be measured. An example of such a probe is rhodamine (TAMRA)-labeled dexamethasone.
The affinity of the probe for the steroid receptor was then determined in a titration experiment. The fluorescence polarization value of the probe in assay buffer was measured on an SLM-8100 fluorometer using the excitation and emission maximum values described above. Aliquots of expression vector lysate were added and fluorescence polarization was measured after each addition until no further change in polarization value was observed. Non-linear least squares regression analysis was used to calculate the dissociation constant of the probe from the polarization values obtained for lysate binding to the probe.
Step 2. Screening for Inhibitors of Probe Binding
This assay uses fluorescence polarization (FP) to quantitate the ability of test compounds to compete with tetramethyl rhodamine (TAMRA)-labeled dexamethasone for binding to a human glucocorticoid receptor (GR) complex prepared from an insect expression system. The assay buffer was: 10 mM TES, 50 mM KCl, 20 mM Na2MoO4.2H20, 1.5 mM EDTA, 0.04% w/v CHAPS, 10% v/v glycerol, 1 mM dithiothreitol, pH 7.4. Test compounds were dissolved to 1 mM in neat DMSO and then further diluted to 10× assay concentration in assay buffer supplemented with 10% v/v DMSO. Test compounds were serially diluted at 10× assay concentrations in 10% DMSO-containing buffer in 96-well polypropylene plates. Binding reaction mixtures were prepared in 96-well black Dynex microtiter plates by sequential addition of the following assay components to each well: 15 μL of 10× test compound solution, 85 μL of GR-containing baculovirus lysate diluted 1:170 in assay buffer, and 50 μL of 15 nM TAMRA-labeled dexamethasone. Positive controls were reaction mixtures containing no test compound; negative controls (blanks) were reaction mixtures containing 0.7 μM to 2 μM dexamethasone. […] IC50 values were determined by iterative non-linear curve fitting of the FP signal data to a 4-parameter logistic equation.
With `COc1cc(F)ccc1C(C)(C)CC(O)(Cn1ccc(=O)c2ccccc21)C(F)(F)F` (centres unmarked) the “activity in the GR binding assay” value was “potent activity”.
In the case of `COc1ccc(CN2CCOCC2)cc1C(C)(C)CC(O)(Cn1ccc(=O)c2ccccc21)C(F)(F)F` (centres unmarked) [1-[2-Hydroxy-4-(2-methoxy-5-morpholin-4-ylmethylphenyl)-4-methyl-2-trifluoromethylpentyl]-1H-quinolin-4-one], the “activity in the GR binding assay” value is reported as “potent activity”.
With `COc1ccc(C2OCCCO2)cc1C(C)(C)CC(O)(Cn1ccc(=O)c2ccccc21)C(F)(F)F` (centres unmarked) [1-[4-(5-[1,3]Dioxan-2-yl-2-methoxyphenyl)-2-hydroxy-4-methyl-2-trifluoromethylpentyl]-1H-quinolin-4-one] the “activity in the GR binding assay” value was “potent activity”.
For `CC(C)(CC(O)(Cn1ccc(=O)c2ccccc21)C(F)(F)F)c1cc(Br)ccc1O` (centres unmarked) [1-[4-(5-Bromo-2-hydroxyphenyl)-2-hydroxy-4-methyl-2-trifluoromethylpentyl]-1H-quinolin-4-one], the “activity in the GR binding assay” value was “potent activity”.
With `COc1ccc(C=O)cc1C(C)(C)CC(O)(Cn1ccc(=O)c2ccccc21)C(F)(F)F` (centres unmarked) [4-Methoxy-3-[4,4,4-trifluoro-3-hydroxy-1,1-dimethyl-3-(4-oxo-4H-quinolin-1-ylmethyl)butyl]benzaldehyde] the “activity in the GR binding assay” value was “potent activity”.
For `CC(C)(CC(O)(Cn1ccc(=O)c2cc(F)ccc21)C(F)(F)F)c1cc(F)ccc1O` (centres unmarked) [6-Fluoro-1-[4-(5-fluoro-2-hydroxyphenyl)-2-hydroxy-4-methyl-2-trifluoromethylpentyl]-1H-quinolin-4-one], the “activity in the GR binding assay” value was “potent activity”.
`CC(C)(CC(O)(Cn1ccc(=O)c2ccccc21)C(F)(F)F)c1cccc(CO)c1` (centres unmarked) was tested, and the “activity in the GR binding assay” value was “potent activity”.
In the case of `CCOc1ccc(F)cc1C(C)(C)CC(O)(Cn1ccc(=O)c2ccccc21)C(F)(F)F` (centres unmarked) [1-[4-(2-Ethoxy-5-fluorophenyl)-2-hydroxy-4-methyl-2-trifluoromethylpentyl]-1H-quinolin-4-one], the “activity in the GR binding assay” value is reported as “potent activity”.
With `COc1ccc(F)cc1C(C)(C)CC(O)(Cn1cc(CO)c(=O)c2ccccc21)C(F)(F)F` (centres unmarked) [1-[4-(5-Fluoro-2-methoxyphenyl)-2-hydroxy-4-methyl-2-trifluoromethylpentyl]-3-hydroxymethyl-1H-quinolin-4-one] the “activity in the GR binding assay” value was “potent activity”.
`Cc1cc(F)ccc1C(C)(C)CC(O)(Cn1ccc(=O)c2ccccc21)C(F)(F)F` (centres unmarked) was tested, and the “activity in the GR binding assay” value was “potent activity”.
`Cc1cn(CC(O)(CC(C)(C)c2cc(F)ccc2O)C(F)(F)F)c2ccccc2c1=O` (centres unmarked) was tested, and the “activity in the GR binding assay” value was “potent activity”.
In the case of `COc1ccc(C)cc1C(C)(C)CC(O)(Cn1ccc(=O)c2ccccc21)C(F)(F)F` (centres unmarked) [1-[2-Hydroxy-4-(2-methoxy-5-methylphenyl)-4-methyl-2-trifluoromethylpentyl]-1H-quinolin-4-one], the “activity in the GR binding assay” value is reported as “potent activity”.
With `CC(C)(CC(O)(Cn1cc(CO)c(=O)c2ccccc21)C(F)(F)F)c1cc(F)ccc1O` (centres unmarked) [1-[4-(5-Fluoro-2-hydroxyphenyl)-2-hydroxy-4-methyl-2-trifluoromethylpentyl]-3-hydroxymethyl-1H-quinolin-4-one] the “activity in the GR binding assay” value was “potent activity”.
`CC(C)(CC(O)(Cn1ccc(=O)c2cccc(F)c21)C(F)(F)F)c1cc(F)ccc1O` (centres unmarked) [8-Fluoro-1-[4-(5-fluoro-2-hydroxyphenyl)-2-hydroxy-4-methyl-2-trifluoromethylpentyl]-1H-quinolin-4-one] was tested, and the “activity in the GR binding assay” value was “potent activity”.
With `CC(C)(CC(O)(Cn1ccc(=O)c2ccccc21)C(F)(F)F)c1cc(-c2cncnc2)ccc1O` (centres unmarked) the “activity in the GR binding assay” value was “potent activity”.
In the case of `COc1ccc(F)cc1C(C)(C)CC(O)(CN1CCSc2ccccc21)C(F)(F)F` (centres unmarked) [2-(2,3-Dihydrobenzo[1,4]thiazin-4-ylmethyl)-1,1,1-trifluoro-4-(5-fluoro-2-methoxyphenyl)-4-methylpentan-2-ol], the “activity in the GR binding assay” value is reported as “potent activity”.
In the case of `CC(C)(CC(O)(Cn1ccc(=O)c2ccccc21)C(F)(F)F)c1cccc(C2(C)OCCO2)c1` (centres unmarked) [1-{2-Hydroxy-4-methyl-4-[3-(2-methyl-[1,3]dioxolan-2-yl)phenyl]-2-trifluoromethylpentyl}-1H-quinolin-4-one], the “activity in the GR binding assay” value is reported as “potent activity”.
For `CC(C)(CC(O)(Cn1ccc(=O)c2ccccc21)C(F)(F)F)c1cccc(Br)c1` (centres unmarked) [1-[4-(3-Bromophenyl)-2-hydroxy-4-methyl-2-trifluoromethylpentyl]-1H-quinolin-4-one], the “activity in the GR binding assay” value was “potent activity”.
For `COc1ccc(F)cc1C(C)(C)CC(O)(Cn1[nH]c(=O)c2ccccc21)C(F)(F)F` (centres unmarked) [1-[4-(5-Fluoro-2-methoxyphenyl)-2-hydroxy-4-methyl-2-trifluoromethylpentyl]-1,2-dihydroindazol-3-one], the “activity in the GR binding assay” value was “potent activity”.
`Cc1ccc(F)cc1C(C)(C)CC(O)(Cn1cc(C)c(=O)c(C)c1)C(F)(F)F` (centres unmarked) [1-[4-(5-Fluoro-2-methylphenyl)-2-hydroxy-4-methyl-2-trifluoromethylpentyl]-3,5-dimethyl-1H-pyridin-4-one] was tested, and the “activity in the GR binding assay” value was “potent activity”.
`CC(C)(CC(O)(Cn1ccc(=O)c2ccccc21)C(F)(F)F)c1cc(-c2cccnc2)ccc1O` (centres unmarked) [1-[2-Hydroxy-4-(2-hydroxy-5-pyridin-3-ylphenyl)-4-methyl-2-trifluoromethylpentyl]-1H-quinolin-4-one] was tested, and the “activity in the GR binding assay” value was “potent activity”.
In the case of `COc1ccc(-c2ccsc2)cc1C(C)(C)CC(O)(Cn1ccc(=O)c2ccccc21)C(F)(F)F` (centres unmarked), the “activity in the GR binding assay” value is reported as “potent activity”.
In the case of `Cc1ccc(C(C)(C)CC(O)(Cn2ccc(=O)c3ccccc32)C(F)(F)F)c(C)c1` (centres unmarked), the “activity in the GR binding assay” value is reported as “potent activity”.
With `COc1ccc(-c2ccoc2)cc1C(C)(C)CC(O)(Cn1ccc(=O)c2ccccc21)C(F)(F)F` (centres unmarked) [1-[4-(5-Furan-3-yl-2-methoxyphenyl)-2-hydroxy-4-methyl-2-trifluoromethylpentyl]-1H-quinolin-4-one] the “activity in the GR binding assay” value was “potent activity”.
`COC(=O)Oc1ccc(F)cc1C(C)(C)CC(O)(Cn1ccc(=O)c2ccccc21)C(F)(F)F` (centres unmarked) was tested, and the “activity in the GR binding assay” value was “potent activity”.
For `CC(C)(CC(O)(Cn1ccc(=O)c2ccccc21)C(F)(F)F)c1cccc(-c2cccnc2)c1` (centres unmarked), the “activity in the GR binding assay” value was “potent activity”.
For `COc1ccc(-c2ccccc2)cc1C(C)(C)CC(O)(Cn1ccc(=O)c2ccccc21)C(F)(F)F` (centres unmarked) [1-[2-Hydroxy-4-(4-methoxybiphenyl-3-yl)-4-methyl-2-trifluoromethylpentyl]-1H-quinolin-4-one], the “activity in the GR binding assay” value was “potent activity”.
With `CC(C)(CC(O)(Cn1ccc(=O)c2cc(Cl)ccc21)C(F)(F)F)c1cc(F)ccc1O` (centres unmarked) [6-Chloro-1-[4-(5-fluoro-2-hydroxyphenyl)-2-hydroxy-4-methyl-2-trifluoromethylpentyl]-1H-quinolin-4-one] the “activity in the GR binding assay” value was “potent activity”.
In the case of `CC(C)(CC(O)(CN1CCN(C(=O)c2ccco2)CC1)C(F)(F)F)c1cc(F)ccc1O` (centres unmarked) [{4-[4-(5-Fluoro-2-hydroxyphenyl)-2-hydroxy-4-methyl-2-trifluoromethylpentyl]piperazin-1-yl}furan-2-ylmethanone], the “activity in the GR binding assay” value is reported as “potent activity”.
